row,Structure (SMILES),melting point
1,"COCOc1c(O)cccc1/C=C/C(=O)CC(=O)/C=C/c1ccc(OC)c(O)c1 [CU248, (1E,6E)-1-[3-hydroxy-2-(methoxymethoxy)phenyl]-7-(3-hydroxy-4-methoxyphenyl)hepta-1,6-diene-3,5-dione]",79 to 83 °C
2,"COc1ccc(OC)c(/C=C/C(=O)CC(=O)/C=C/c2ccc(OC)c(O)c2)c1 [CU077, (1E,6E)-1-(2,5-dimethoxyphenyl)-7-(3-hydroxy-4-methoxyphenyl)hepta-1,6-diene-3,5-dione]",63 to 68 °C
3,"O=C(/C=C/c1cc(O)ccc1-c1cccc2ccccc12)CC(=O)CCc1ccc(O)cc1 [CU542, (E)-1-[5-hydroxy-2-(naphthalen-1-yl)phenyl]-7-(4-hydroxyphenyl)hept-1-ene-3,5-dione]",138 to 142 °C
4,"COc1ccc(/C=C/C(=O)CC(=O)/C=C/c2ccco2)cc1O [CU211, (1E,6E)-1-(furan-2-yl)-7-(3-hydroxy-4-methoxyphenyl)hepta-1,6-diene-3,5-dione]",120 to 123 °C
5,"CCN(CC)c1ccc(/C=C/C(=O)CC(=O)/C=C/c2ccc(OC)c(O)c2)c(OCc2ccccc2)c1 [CU438, (1E,6E)-1-(2-benzyloxy-4-diethylaminophenyl)-7-(3-hydroxy-4-methoxyphenyl)hepta-1,6-diene-3,5-dione]",72 to 77 °C
6,"COc1cc(/C=C/C(=O)CC(=O)/C=C/c2cc(OC)c(OC)c(OC)c2)ccc1O [CU006, (1E,6E)-1-(4-hydroxy-3-methoxyphenyl)-7-(3,4,5-trimethoxyphenyl)hepta-1,6-diene-3,5-dione]",80 to 83 °C
7,"CCN(CC)c1ccc(/C=C/C(=O)CC(=O)/C=C/c2ccc(OC)c(O)c2)c(OCC=C(C)C)c1 [CU442, (1E,6E)-1-(4-diethylamino-2-prenyloxyphenyl)-7-(3-hydroxy-4-methoxyphenyl)hepta-1,6-diene-3,5-dione]",139 to 143 °C
8,"O=C(/C=C/c1ccc(O)cc1)CC(=O)/C=C/c1ccccc1N1CCCC1 [CU496, (1E,6E)-1-(4-hydroxyphenyl)-7-[2-(pyrrolidin-1-yl)phenyl]hepta-1,6-diene-3,5-dione]",73 to 80 °C
9,"COc1cc(/C=C/C(=O)CC(=O)/C=C/c2ccco2)ccc1O [CU015, (1E,6E)-1-(furan-2-yl)-7-(4-hydroxy-3-methoxyphenyl)hepta-1,6-diene-3,5-dione]",48 to 50 °C
10,"CCN(CC)c1ccc(/C=C/C(=O)CC(=O)/C=C/c2ccc(OC)c(O)c2)c(OC(C)C)c1 [CU440, (1E,6E)-1-(4-diethylamino-2-isopropyloxyphenyl)-7-(3-hydroxy-4-methoxyphenyl)hepta-1,6-diene-3,5-dione]",117 to 120 °C
11,"COc1ccc(/C=C/C(=O)CC(=O)/C=C/c2ccc(Oc3ccccc3)cc2)cc1O [CU219, (1E,6E)-1-(3-hydroxy-4-methoxyphenyl)-7-(4-phenoxyphenyl)hepta-1,6-diene-3,5-dione]",185 to 187 °C
12,"CC(C)(C)OC(=O)Nc1ccc(/C=C/C(=O)CC(=O)/C=C/c2ccc(O)cc2)cc1 [CU405, (1E,6E)-1-[4-(tert-butoxycarbonylamino)phenyl]-7-(4-hydroxyphenyl)hepta-1,6-diene-3,5-dione]",181 to 184 °C
13,"COc1ccc(/C=C/C(=O)CC(=O)/C=C/c2ccc([N+](=O)[O-])c(OC)c2)cc1O [CU049, (1E,6E)-1-(3-hydroxy-4-methoxyphenyl)-7-(3-methoxy-4-nitrophenyl)hepta-1,6-diene-3,5-dione]",196 to 199 °C
14,"COc1ccc(/C=C/C(=O)CC(=O)/C=C/c2ccc(N(C)C)cc2[N+](=O)[O-])cc1O [CU197, (1E,6E)-1-(4-dimethylamino-2-nitrophenyl)-7-(3-hydroxy-4-methoxyphenyl)hepta-1,6-diene-3,5-dione]",183 to 186 °C
15,"O=C(/C=C/c1ccc(O)cc1)CC(=O)/C=C/c1cccc2cccnc12 [CU323, (1E,6E)-1-(4-hydroxyphenyl)-7-(quinolin-8-yl)hepta-1,6-diene-3,5-dione]",112 to 117 °C
16,"CCN(CC)c1ccc(/C=C/C(=O)CC(=O)/C=C/c2ccc(N(CC)CC)cc2OC(C)C)c(OC(C)C)c1 [CU433, (1E,6E)-1,7-bis(4-diethylamino-2-isopropyloxyphenyl)hepta-1,6-diene-3,5-dione]",63 to 66 °C
17,"O=C(/C=C/c1ccc(O)cc1)CC(=O)/C=C/c1cc(C(F)(F)F)ccc1F [CU473, (1E,6E)-1-(2-fluoro-5-trifluoromethylphenyl)-7-(4-hydroxyphenyl)hepta-1,6-diene-3,5-dione]",168 to 174 °C
18,"COc1ccc(/C=C/C(=O)CC(=O)/C=C/c2cn(C)c3ccccc23)cc1O [CU125, (1E,6E)-1-(3-hydroxy-4-methoxyphenyl)-7-(1-methyl-1H-indol-3-yl)hepta-1,6-diene-3,5-dione]",162 to 166 °C
19,"CCn1c2ccccc2c2cc(/C=C/C(=O)CC(=O)/C=C/c3ccc4c(c3)c3ccccc3n4CC)ccc21 [CU263, (1E,6E)-1,7-bis(9-ethyl-9H-carbazol-3-yl)hepta-1,6-diene-3,5-dione]",264 to 267 °C
20,"COc1cc(/C=C/C(=O)CC(=O)/C=C/c2cccc(OC)c2OC)ccc1O [CU070, (1E,6E)-1-(2,3-dimethoxyphenyl)-7-(4-hydroxy-3-methoxyphenyl)hepta-1,6-diene-3,5-dione]",57 to 65 °C

# Other lines, results leading:
row,melting point,Structure (SMILES)
1,186 to 192 °C,"Nc1ccc(O)cc1/C=C/C(=O)CC(=O)/C=C/c1ccc(O)cc1 [CU488, (1E,6E)-1-(2-amino-5-hydroxyphenyl)-7-(4-hydroxyphenyl)hepta-1,6-diene-3,5-dione]"
2,80 to 86 °C,"COc1ccc(O)c(/C=C/C(=O)CC(=O)/C=C/c2ccc(OC)c(O)c2)c1 [CU089, (1E,6E)-1-(2-hydroxy-5-methoxyphenyl)-7-(3-hydroxy-4-methoxyphenyl)hepta-1,6-diene-3,5-dione]"
3,173 to 178 °C,"O=C(/C=C/c1ccc(O)cc1)CC(=O)/C=C/c1cc2ccccc2o1 [CU321, (1E,6E)-1-(benzofuran-2-yl)-7-(4-hydroxyphenyl)hepta-1,6-diene-3,5-dione]"
4,199 to 201 °C,"O=C(/C=C/c1ccc(O)cc1)CC(=O)/C=C/c1cc(Cl)cc(Cl)c1O [CU281, (1E,6E)-1-(3,5-dichloro-2-hydroxyphenyl)-7-(4-hydroxyphenyl)hepta-1,6-diene-3,5-dione]"
5,255 to 259 °C,"O=C(/C=C/c1ccc(O)cc1)CC(=O)/C=C/c1cc(O)c(Br)cc1Br [CU544, (1E,6E)-1-(2,4-dibromo-5-hydroxyphenyl)-7-(4-hydroxyphenyl)hepta-1,6-diene-3,5-dione]"
6,133 to 140 °C,"O=C(/C=C/c1ccc(O)cc1)CC(=O)/C=C/c1cc(O)ccc1O [CU090, (1E,6E)-1-(2,5-dihydroxyphenyl)-7-(4-hydroxyphenyl)hepta-1,6-diene-3,5-dione]"
7,84 to 86 °C,"COc1cc(/C=C/C(=O)CC(=O)/C=C/c2ccc(O)cc2)ccc1N(C)C [CU048, (1E,6E)-1-(4-dimethylamino-3-methoxyphenyl)-7-(4-hydroxyphenyl)hepta-1,6-diene-3,5-dione]"
8,173 to 176 °C,"COc1ccc(/C=C/C(=O)CC(=O)/C=C/c2ccc(O)c(F)c2)cc1O [CU035, (1E,6E)-1-(3-fluoro-4-hydroxyphenyl)-7-(3-hydroxy-4-methoxyphenyl)hepta-1,6-diene-3,5-dione]"
9,75 to 80 °C,"COc1cc(/C=C/C(=O)CC(=O)/C=C/c2cc(O)ccc2OC)ccc1O [CU178, (1E,6E)-1-(4-hydroxy-3-methoxyphenyl)-7-(5-hydroxy-2-methoxyphenyl)hepta-1,6-diene-3,5-dione]"
10,70 to 72 °C,"COc1cccc(/C=C/C(=O)CC(=O)/C=C/c2ccc(O)cc2)c1OC [CU069, (1E,6E)-1-(2,3-dimethoxyphenyl)-7-(4-hydroxyphenyl)hepta-1,6-diene-3,5-dione]"
11,75 to 80 °C,"COc1cc(/C=C/C(=O)CC(=O)/C=C/c2ccc(O)cc2)cc(OC)c1 [CU099, (1E,6E)-1-(3,5-dimethoxyphenyl)-7-(4-hydroxyphenyl)hepta-1,6-diene-3,5-dione]"
12,161 to 165 °C,"COc1cc(O)cc(/C=C/C(=O)CC(=O)/C=C/c2ccc(O)cc2)c1 [CU180, (1E,6E)-1-(4-hydroxyphenyl)-7-(3-hydroxy-5-methoxyphenyl)hepta-1,6-diene-3,5-dione]"
13,74 to 80 °C,"COc1cc(/C=C/C(=O)CC(=O)/C=C/c2cccc(O)c2)ccc1O [CU079, (1E,6E)-1-(4-hydroxy-3-methoxyphenyl)-7-(3-hydroxyphenyl)hepta-1,6-diene-3,5-dione]"
14,169 to 173 °C,"Cn1cccc1/C=C/C(=O)CC(=O)/C=C/c1ccc(O)cc1 [CU120, (1E,6E)-1-(4-hydroxyphenyl)-7-(1-methyl-1H-pyrrol-2-yl)hepta-1,6-diene-3,5-dione]"
15,149 to 152 °C,"COC(=O)c1ccc(/C=C/C(=O)CC(=O)/C=C/c2ccc(O)c(OC)c2)cc1 [CU316, (1E,6E)-1-(4-hydroxy-3-methoxyphenyl)-7-[4-(methoxycarbonyl)phenyl]hepta-1,6-diene-3,5-dione]"
16,220 to 224 °C,"COc1ccc(/C=C/C(=O)CC(=O)/C=C/c2ccc(O)c([N+](=O)[O-])c2)cc1O [CU041, (1E,6E)-1-(3-hydroxy-4-methoxyphenyl)-7-(4-hydroxy-3-nitrophenyl)hepta-1,6-diene-3,5-dione]"
17,208 to 213 °C,"Cn1c(/C=C/C(=O)CC(=O)/C=C/c2ccc(O)cc2)cc2ccccc21 [CU126, (1E,6E)-1-(4-hydroxyphenyl)-7-(1-methyl-1H-indol-2-yl)hepta-1,6-diene-3,5-dione]"
18,190 to 192 °C,"COc1cc(/C=C/C(=O)CC(=O)/C=C/c2ccc(O)cc2)ccc1[N+](=O)[O-] [CU050, (1E,6E)-1-(4-hydroxyphenyl)-7-(3-methoxy-4-nitrophenyl)hepta-1,6-diene-3,5-dione]"
19,145 to 147 °C,"COc1ccc(/C=C/C(=O)CC(=O)/C=C/c2ccc(F)c(OC)c2)cc1O [CU139, (1E,6E)-1-(4-fluoro-3-methoxyphenyl)-7-(3-hydroxy-4-methoxyphenyl)hepta-1,6-diene-3,5-dione]"

# Source: patent publication US8962674B2 (Tokyo Institute of Technology, priority 2006, dated 2015)
